# pIC50: −log10 of the molar value.
# System: 695427-040-R-J1-PDC complex spheroid viability
# Assay: Anticancer human tumor 695427-040-R-J1-PDC patient-derived colon adenocarcinoma cell line growth inhibition [POLQ]
# Conditions: for pIC50: curve of first compound; for viability, T/C: stronger effect = lower value
# How it was run: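 PDC + HUVEC + MSC complex spheroids; POLQ inhibitors ± partner drugs; top conc. at/near clinical Cmax, else 10 microM (SN-38 1 microM), half-log dilutions; 37 degrees C, 5% CO2.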
# [1] = second compound 0.0316 µM, first compound 0.0316 µM
# [2] = second compound 0.0316 µM, first compound 0.1 µM
# [3] = second compound 0.1 µM, first compound 0.0316 µM
# [4] = second compound 0.1 µM, first compound 0.1 µM
# [5] = second compound 0.316 µM, first compound 0.0316 µM
# [6] = second compound 0.316 µM, first compound 0.1 µM
# [7] = second compound 1 µM, first compound 0.0316 µM
# [8] = second compound 1 µM, first compound 0.1 µM
# [9] = second compound 3.16 µM, first compound 0.0316 µM
# [10] = second compound 3.16 µM, first compound 0.1 µM
# [11] = second compound 10 µM, first compound 0.0316 µM
# [12] = second compound 10 µM, first compound 0.1 µM
# 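Note: spheroids exposed to compounds for seven days.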
# 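Throughout, for viability, T/C: 100% = DMSO vehicle control viability.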
compound,measurement,setting,value
COc1ccc([C@@H](O)c2cc(-c3ncnc4cc(N5CCOCC5)ccc34)c(F)cc2Cl)nn1 + Nc1ccc(C#CCN(C(=O)Cc2ncc(C(F)(F)F)cc2C(F)(F)F)c2ccc(F)cc2)nn1,pIC50,second compound 0.0316 µM,< 5.00
same,pIC50,second compound 0.1 µM,< 5.00
same,pIC50,second compound 0.316 µM,< 5.00
same,pIC50,second compound 1 µM,< 5.00
same,pIC50,second compound 3.16 µM,< 5.00
same,pIC50,second compound 10 µM,< 5.00
same,"viability, T/C",[1],101%
same,"viability, T/C",[2],91.6%
same,"viability, T/C","second compound 0.0316 µM, first compound 0.316 µM",99.2%
same,"viability, T/C","second compound 0.0316 µM, first compound 1 µM",89.7%
same,"viability, T/C","second compound 0.0316 µM, first compound 3.16 µM",84.3%
same,"viability, T/C","second compound 0.0316 µM, first compound 10 µM",60.7%
same,"viability, T/C",[3],105%
same,"viability, T/C",[4],108%
same,"viability, T/C","second compound 0.1 µM, first compound 0.316 µM",98.8%
same,"viability, T/C","second compound 0.1 µM, first compound 1 µM",89.3%
same,"viability, T/C","second compound 0.1 µM, first compound 3.16 µM",86.5%
same,"viability, T/C","second compound 0.1 µM, first compound 10 µM",54%
same,"viability, T/C",[5],108%
same,"viability, T/C",[6],106%
same,"viability, T/C","second compound 0.316 µM, first compound 0.316 µM",99.7%
same,"viability, T/C","second compound 0.316 µM, first compound 1 µM",89.6%
same,"viability, T/C","second compound 0.316 µM, first compound 3.16 µM",89.9%
same,"viability, T/C","second compound 0.316 µM, first compound 10 µM",63.9%
same,"viability, T/C",[7],108%
same,"viability, T/C",[8],97.5%
same,"viability, T/C","second compound 1 µM, first compound 0.316 µM",91.1%
same,"viability, T/C","second compound 1 µM, first compound 1 µM",91%
same,"viability, T/C","second compound 1 µM, first compound 3.16 µM",86.2%
same,"viability, T/C","second compound 1 µM, first compound 10 µM",52.2%
same,"viability, T/C",[9],101%
same,"viability, T/C",[10],97.4%
same,"viability, T/C","second compound 3.16 µM, first compound 0.316 µM",99.2%
same,"viability, T/C","second compound 3.16 µM, first compound 1 µM",90.9%
same,"viability, T/C","second compound 3.16 µM, first compound 3.16 µM",78.3%
same,"viability, T/C","second compound 3.16 µM, first compound 10 µM",56.2%
same,"viability, T/C",[11],101%
same,"viability, T/C",[12],92.5%
same,"viability, T/C","second compound 10 µM, first compound 0.316 µM",90.1%
same,"viability, T/C","second compound 10 µM, first compound 1 µM",89.8%
same,"viability, T/C","second compound 10 µM, first compound 3.16 µM",82.1%
same,"viability, T/C","second compound 10 µM, first compound 10 µM",55.1%
Cn1ncnc1[C@H]1c2n[nH]c(=O)c3cc(F)cc(c23)N[C@@H]1c1ccc(F)cc1 + Nc1ccc(C#CCN(C(=O)Cc2ncc(C(F)(F)F)cc2C(F)(F)F)c2ccc(F)cc2)nn1,pIC50,second compound 0.0316 µM,< 7.00
same,pIC50,second compound 0.1 µM,< 7.00
same,pIC50,second compound 0.316 µM,< 7.00
same,pIC50,second compound 1 µM,< 7.00
same,pIC50,second compound 3.16 µM,< 7.00
same,pIC50,second compound 10 µM,< 7.00
same,"viability, T/C","second compound 0.0316 µM, first compound 0.000316 µM",109%
same,"viability, T/C","second compound 0.0316 µM, first compound 0.001 µM",103%
same,"viability, T/C","second compound 0.0316 µM, first compound 0.00316 µM",109%
same,"viability, T/C","second compound 0.0316 µM, first compound 0.01 µM",103%
same,"viability, T/C",[1],111%
same,"viability, T/C",[2],95.1%
same,"viability, T/C","second compound 0.1 µM, first compound 0.000316 µM",100%
same,"viability, T/C","second compound 0.1 µM, first compound 0.001 µM",122%
same,"viability, T/C","second compound 0.1 µM, first compound 0.00316 µM",109%
same,"viability, T/C","second compound 0.1 µM, first compound 0.01 µM",104%
same,"viability, T/C",[3],108%
same,"viability, T/C",[4],88.4%
same,"viability, T/C","second compound 0.316 µM, first compound 0.000316 µM",110%
same,"viability, T/C","second compound 0.316 µM, first compound 0.001 µM",109%
same,"viability, T/C","second compound 0.316 µM, first compound 0.00316 µM",88.5%
same,"viability, T/C","second compound 0.316 µM, first compound 0.01 µM",102%
same,"viability, T/C",[5],110%
same,"viability, T/C",[6],105%
same,"viability, T/C","second compound 1 µM, first compound 0.000316 µM",107%
same,"viability, T/C","second compound 1 µM, first compound 0.001 µM",102%
same,"viability, T/C","second compound 1 µM, first compound 0.00316 µM",104%
same,"viability, T/C","second compound 1 µM, first compound 0.01 µM",99.7%
same,"viability, T/C",[7],119%
same,"viability, T/C",[8],92.8%
same,"viability, T/C","second compound 3.16 µM, first compound 0.000316 µM",105%
same,"viability, T/C","second compound 3.16 µM, first compound 0.001 µM",100%
same,"viability, T/C","second compound 3.16 µM, first compound 0.00316 µM",104%
same,"viability, T/C","second compound 3.16 µM, first compound 0.01 µM",103%
same,"viability, T/C",[9],108%
same,"viability, T/C",[10],89%
same,"viability, T/C","second compound 10 µM, first compound 0.000316 µM",102%
same,"viability, T/C","second compound 10 µM, first compound 0.001 µM",90.9%
same,"viability, T/C","second compound 10 µM, first compound 0.00316 µM",99%
same,"viability, T/C","second compound 10 µM, first compound 0.01 µM",88.1%
same,"viability, T/C",[11],102%
same,"viability, T/C",[12],86.1%

# Source: PubChem BioAssay AID1963840 (Molecular Pharmacology Branch, DTP, NCI, 2024)
